Experimental data as given in patent US20100317685A1, “N-PHENYL-IMIDAZO[1,2-a]PYRIDINE-2-CARBOXAMIDE DERIVATIVES, THEIR PREPARATION AND THEIR THERAPEUTIC APPLICATION” (SANOFI-AVENTIS, priority 2008, published 2010).

Target: T1, mouse Nurr1 receptor (Mus musculus, UniProt Q06219)
T1 construct: a cell line (N2A) endogenously expressing the mouse Nurr1 receptor; host or cells: Neuro-2A (N2A) mouse neuroblastoma cells stably transfected with 8NBRE-luciferase
Assay: In vitro activity on N2A cells (NBRE-luciferase reporter)
Type: cell-based
Conditions: N2A-8NBRE cells, 24 hours incubation
Description: Evaluation of the In Vitro Activity on N2A Cells
The activity of the compounds according to the invention was evaluated on a cell line (N2A) endogenously expressing the mouse Nurr1 receptor and stably transfected with the NOT binding response element (NBRE) coupled to the luciferase reporter gene. The EC50 values are between 0.01 and 1000 nM. The assays were carried out according to the procedure described below.
The Neuro-2A cell line comes from a standard commercial source (ATCC). The Neuro-2A clone was obtained, from a spontaneous tumour originating from an A albino mouse strain, by R. J Klebe et al. This Neuro-2A line is subsequently stably transfected with 8NBRE-luciferase. The N2A-8NBRE cells are cultured until confluence in 75 cm^2 culture flasks containing DMEM supplemented with 10% of foetal calf serum, 4.5 g/l of glucose and 0.4 mg/ml of geneticin. After a week of culture, the cells are recovered with 0.25% trypsin for 30 seconds and then resuspended in DMEM without phenol red, containing 4.5 g/l of glucose and 10% of Hyclone delipidized serum, and deposited into transparent-bottom 96-well white plates. The cells are deposited at a rate of 60 000 per well in 75 μl for 24 hours before the addition of the products. […] The plates are subsequently measured in a luminescence counter for microplates after having been sealed with an adhesive film. […]

T1 sequence (Q06219 whole entry): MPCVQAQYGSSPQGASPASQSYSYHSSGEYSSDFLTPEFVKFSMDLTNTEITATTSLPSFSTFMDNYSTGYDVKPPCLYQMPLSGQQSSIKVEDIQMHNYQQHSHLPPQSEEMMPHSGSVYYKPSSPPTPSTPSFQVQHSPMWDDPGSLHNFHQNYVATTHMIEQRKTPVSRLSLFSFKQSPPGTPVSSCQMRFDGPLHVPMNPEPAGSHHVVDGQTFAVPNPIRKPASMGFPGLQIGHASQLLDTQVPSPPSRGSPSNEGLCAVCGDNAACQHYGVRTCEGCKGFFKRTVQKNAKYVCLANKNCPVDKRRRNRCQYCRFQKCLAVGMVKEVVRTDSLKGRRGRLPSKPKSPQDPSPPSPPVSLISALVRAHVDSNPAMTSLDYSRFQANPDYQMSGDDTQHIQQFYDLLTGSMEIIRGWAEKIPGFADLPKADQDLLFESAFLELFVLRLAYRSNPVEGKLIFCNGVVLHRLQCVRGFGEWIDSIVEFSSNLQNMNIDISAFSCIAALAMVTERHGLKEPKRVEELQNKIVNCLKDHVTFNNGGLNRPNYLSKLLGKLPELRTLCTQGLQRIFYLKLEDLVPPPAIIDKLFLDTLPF

Row | EC50 [nM] | Compound
1 | 27 | N#Cc1cccc(NC(=O)c2cn3cc(-c4cccc(CO)c4)ccc3n2)c1 [Compound 5, N-(3-cyanophenyl)-6-[3-(hydroxymethyl)phenyl]imidazo[1,2-a]pyridine-2-carboxamide]
2 | 0.4 | N#Cc1c(F)cccc1NC(=O)c1cn2cc(-c3cccc(CO)c3)ccc2n1 [Compound 8, N-(2-cyano-3-fluorophenyl)-6-[3-(hydroxymethyl)phenyl]imidazo[1,2-a]pyridine-2-carboxamide]
